Results as given in article PMC5118987 (Antimicrobial Agents and Chemotherapy, 2016).

Legend:
HIV-1 IIIb [1] = test: Antiviral assay in MT-2 cells; format: cell-based
Experimental: (§1) For the antiviral assay utilizing MT-2 and MT-4 cells, 50 μl of a 2× test concentration of 5-fold serially diluted compound in culture medium with 10% FBS was added to each well of a 96-well plate (9 concentrations) in triplicate. MT-2 and MT-4 cells were infected with HIV-1 IIIb at a multiplicity of infection (MOI) of 0.01 for 3 h. Fifty microliters of infected cell suspension in culture medium with 10% FBS (∼1.5 × 10^4 cells) then was added to each well containing 50 μl of diluted compound. The plates were then incubated at 37°C for 5 days. After 5 days of incubation, 100 μl of CellTiter-Glo reagent (Promega Biosciences, Inc., Madison, WI) was added to each well containing MT-2 or MT-4 cells. Cell lysis was carried out by incubation at room temperature for 10 min and chemiluminescence was read. For compound cytotoxicity assessment, the protocol was identical except that uninfected cells were used and compounds were serially diluted 3-fold.

[2] = Cytotoxicity assay in MT-4 cells; format: cell-based; conditions: human, uninfected MT-4 cells
Experimental: as §1

Influenza B/LEE/40 = test: microbe, parasite or virus in culture; format: cell-based; conditions: NHBE
RSV strain A2 = test: microbe, parasite or virus in culture; format: cell-based, respiratory syncytial virus; conditions: human respiratory syncytial virus, HEp-2
[3] = tested on: organic cation transporter 2 (OCT2); conditions: read-out: IC50 inhibition of organic cation transporter 2 (OCT2); cited from earlier work
[4] = via inhibition of OCT2 in proximal tubule; cited from earlier work
[5] = Cytotoxicity in AD38 cells; conditions: human
HCV 1b Replicon = test: Anti-HCV activity, HCV 1b replicon; conditions: Hepatitis C virus, Huh-7
HIV-1 IIIb [6] = test: microbe, parasite or virus in culture; conditions: Human immunodeficiency virus 1, IIIB, MT4
Experimental: Each compound series was prepared several times independently in quadruplicate to capture the variations in Hill slope associated with preparation of compound serial dilutions. The assay was performed in a 384-well format. MT-4 cells were infected in bulk at the same MOI as that described above, and the plates were developed with CellTiter-Glo reagent 5 days postinfection.

HIV-1 BaL [7] = test: Antiviral assay in primary CD4+ T lymphocytes (p24 ELISA); conditions: Human immunodeficiency virus 1, BAL
Excerpt: (§2) Freshly isolated human peripheral blood mononuclear cells (PBMCs) were obtained from healthy volunteers (supplied by AllCells, Inc., Alameda, CA). Blood donors were negative for HIV-1, hepatitis B, and hepatitis C viral infections. CD4^+ T lymphocytes were isolated by negative selection using a magnetically labeled antibody cocktail ([sequence] Technologies Inc., Vancouver, Canada) and cultured in RPMI cell culture media (Life Technologies, Grand Island, NY) supplemented with 10% FBS. CD4^+ T cells were activated for 48 h at 37°C by addition of 1 μg/ml phytohemagglutinin (PHA; Sigma, St. Louis, MO) and 5 ng/ml interleukin-2 (IL-2; Roche Diagnostics, Indianapolis, IN).
(§3) A 3-fold serial dilution of test compounds in RPMI medium was added to triplicate wells and incubated at 37°C for 5 days. Human monocytes were seeded on 96-well plates at a density of 3 × 10^5 cells per well, differentiated into adherent macrophages, and then infected with HIV-1 BaL virus in 50 μl RPMI for 3 h at 37°C. […] The supernatants derived from the CD4^+ T-cell and macrophage cultures were harvested 6 and 12 days postinfection, respectively, and the amount of HIV present was quantified by p24 enzyme-linked immunosorbent assay (ELISA) (PerkinElmer, Waltham, MA).

HIV-1 BaL [8] = test: Antiviral assay in monocyte-derived macrophages (p24 ELISA); conditions: Human immunodeficiency virus 1, BAL, Macrophage
Excerpt: as §2, §3

HIV-1 clinical isolates = test: Antiviral assay against HIV-1 clinical isolates in fresh human PBMCs (RT endpoint)
[9] = tested on: HIV-1 patient-derived isolates with INSTI resistance mutations; test: PhenoSense IN assay, 47 patient-derived isolates; format: cell-based
Experimental: Forty-seven resistance test vectors containing patient-derived IN coding regions were constructed using standard Monogram Biosciences protocols. […] The fold change from the NL4-3 wild-type reference vector values was determined. Statistical significance was determined using the Student two-tailed t test.

C[C@@H]1CCO[C@H]2Cn3cc(C(=O)NCc4ccc(F)cc4F)c(=O)c(O)c3C(=O)N12 [DTG, Dolutegravir]
EC50 (HIV-1 IIIb [1]; Human immunodeficiency virus 1, IIIB, MT2, Table S9 footnote b, read-out: EC50 previously determined (start of resistance selection at twice the EC50)): 1.6 nM | EC50 (HIV-1 IIIb [1]; Human immunodeficiency virus 1, MT2, 120 h, MT-2 cells, HIV-1 IIIb, 5 days, read-out: EC50): 1.5 ± 0.2 nM | CC50 at 5 days [2]: 14700 nM | EC50 (Influenza B/LEE/40): 15100 nM | EC50 (RSV strain A2): > 50000 nM | IC50 [3]: 1930 nM | increase of human serum creatinine levels [4]: about 10% | CC50 at 5 days [5]: > 50000 nM | EC50 (HCV 1b Replicon): > 44000 nM | EC50 (HIV-1 IIIb [6]): 1.7 ± 0.2 nM | EC50 (HIV-1 BaL [7]): 1 ± 0.3 nM | EC50 (HIV-1 BaL [8]): 3.1 ± 2.5 nM | EC50 (HIV-1 clinical isolates; Human immunodeficiency virus 1, BAL, PBMC, HIV-1 subtype B isolate BaL, human PBMCs): 0.32 ± 0.11 nM | EC50 (HIV-1 clinical isolates; Human immunodeficiency virus 1, PBMC, HIV-1 subtype A isolate 92RW016, human PBMCs): 0.34 ± 0.09 nM | EC50 (HIV-1 clinical isolates; Human immunodeficiency virus 1, PBMC, HIV-1 subtype A isolate 92UG037, human PBMCs): 0.66 ± 0.05 nM | EC50 (HIV-1 clinical isolates; Human immunodeficiency virus 1, PBMC, HIV-1 subtype B isolate 89BZ_167, human PBMCs): 1.4 ± 0.4 nM | EC50 (HIV-1 clinical isolates; Human immunodeficiency virus 1, PBMC, HIV-1 subtype B isolate 91US001, human PBMCs): 0.8 ± 0.48 nM | EC50 (HIV-1 clinical isolates; Human immunodeficiency virus 1, PBMC, HIV-1 subtype B isolate 91US004, human PBMCs): 1 ± 0.4 nM | EC50 (HIV-1 clinical isolates; Human immunodeficiency virus 1, PBMC, HIV-1 subtype C isolate 93IN905, human PBMCs): 0.17 ± 0.03 nM | EC50 (HIV-1 clinical isolates; Human immunodeficiency virus 1, PBMC, HIV-1 subtype C isolate 98US_MSC5016, human PBMCs): 0.75 ± 0.09 nM | EC50 (HIV-1 clinical isolates; Human immunodeficiency virus 1, PBMC, HIV-1 subtype D isolate 98UG_57128, human PBMCs): 0.32 ± 0.48 nM | EC50 (HIV-1 clinical isolates; Human immunodeficiency virus 1, PBMC, HIV-1 subtype E isolate 96TH_M02138, human PBMCs): 0.11 ± 0.01 nM | EC50 (HIV-1 clinical isolates; Human immunodeficiency virus 1, PBMC, HIV-1 subtype E isolate 96TH_NI1046, human PBMCs): 0.25 ± 0.08 nM | EC50 (HIV-1 clinical isolates; Human immunodeficiency virus 1, PBMC, HIV-1 subtype F isolate 93BR020, human PBMCs): 0.4 ± 0.19 nM

Cc1nnc(C(=O)NC(C)(C)c2nc(C(=O)NCc3ccc(F)cc3)c(O)c(=O)n2C)o1 [RAL, raltegravir]
% of Isolates (Fold-Change vs. WT) (2.5 to <5) ([9]; 47 patient-derived isolates): 4% | % of Isolates (Fold-Change vs. WT) (5 to <10) ([9]; 47 patient-derived isolates): 4% | % of Isolates (Fold-Change vs. WT) (≤2.5) ([9]; 47 patient-derived isolates): 2% | % of Isolates (Fold-Change vs. WT) (≥10) ([9]; 47 patient-derived isolates): 89% | Fold-Change vs. WT Mean ([9]; 47 patient-derived isolates): > 100 fold change | Fold-Change vs. WT Median ([9]; 47 patient-derived isolates): > 143 fold change | Susceptibility (Fold-change vs. WT) ([9]; isolate entry 1: L74M,T97A): 8.48 fold-change | Susceptibility (Fold-change vs. WT) ([9]; isolate entry 2: L68V,Y143C): 4.06 fold-change | Susceptibility (Fold-change vs. WT) ([9]; isolate entry 3: L68L/V,L74M,Y143R): > 143 fold-change | Susceptibility (Fold-change vs. WT) ([9]; isolate entry 4: T97A): 1.78 fold-change | Susceptibility (Fold-change vs. WT) ([9]; isolate entry 5: T97A,F121Y): 112 fold-change | Susceptibility (Fold-change vs. WT) ([9]; isolate entry 6: T97A,Y143R): > 143 fold-change | Susceptibility (Fold-change vs. WT) ([9]; isolate entry 7: F121Y): 12 fold-change | Susceptibility (Fold-change vs. WT) ([9]; isolate entry 8: L74M,N155H): 89 fold-change | Susceptibility (Fold-change vs. WT) ([9]; isolate entry 9: T97A,N155H): 53 fold-change | Susceptibility (Fold-change vs. WT) ([9]; isolate entry 10: T97A,Y143C): > 143 fold-change | Susceptibility (Fold-change vs. WT) ([9]; isolate entry 11: E92Q,E157E/Q): 4.8 fold-change | Susceptibility (Fold-change vs. WT) ([9]; isolate entry 12: E92Q): 18 fold-change | Susceptibility (Fold-change vs. WT) ([9]; isolate entry 13: N155H,E157E/Q): 19 fold-change | Susceptibility (Fold-change vs. WT) ([9]; isolate entry 14: E92Q): 6.7 fold-change | Susceptibility (Fold-change vs. WT) ([9]; isolate entry 15: Y143R): 22 fold-change | Susceptibility (Fold-change vs. WT) ([9]; isolate entry 16: Y143R): 16 fold-change | Susceptibility (Fold-change vs. WT) ([9]; isolate entry 17: N155H): 107 fold-change | Susceptibility (Fold-change vs. WT) ([9]; isolate entry 18: Y143C): 14 fold-change | Susceptibility (Fold-change vs. WT) ([9]; isolate entry 19: T97A,Y143C): > 143 fold-change | Susceptibility (Fold-change vs. WT) ([9]; isolate entry 20: Q148R,E138A): 43 fold-change | Susceptibility (Fold-change vs. WT) ([9]; isolate entry 21: N155H,G163R): 15 fold-change | Susceptibility (Fold-change vs. WT) ([9]; isolate entry 22: E92Q,N155H): > 143 fold-change | Susceptibility (Fold-change vs. WT) ([9]; isolate entry 23: E138K,Q148R): 54 fold-change | Susceptibility (Fold-change vs. WT) ([9]; isolate entry 24: G140S,Q148H): > 143 fold-change | Susceptibility (Fold-change vs. WT) ([9]; isolate entry 25: E92Q,N155H,G163R): > 143 fold-change | Susceptibility (Fold-change vs. WT) ([9]; isolate entry 26: G140A,Q148R): 88 fold-change | Susceptibility (Fold-change vs. WT) ([9]; isolate entry 27: G140S,Q148H): > 143 fold-change | Susceptibility (Fold-change vs. WT) ([9]; isolate entry 28: G140S,Q148H): > 143 fold-change | Susceptibility (Fold-change vs. WT) ([9]; isolate entry 29: G140S, Q148H): > 143 fold-change | Susceptibility (Fold-change vs. WT) ([9]; isolate entry 30: E138K,G140S,Q148H): > 143 fold-change | Susceptibility (Fold-change vs. WT) ([9]; isolate entry 31: G140S,Q148H): > 143 fold-change | Susceptibility (Fold-change vs. WT) ([9]; isolate entry 32: G140S,Q148H, G163K): > 143 fold-change | Susceptibility (Fold-change vs. WT) ([9]; isolate entry 33: G140S,Q148H): > 143 fold-change | Susceptibility (Fold-change vs. WT) ([9]; isolate entry 34: E138K,G140S,Q148H): > 143 fold-change | Susceptibility (Fold-change vs. WT) ([9]; isolate entry 35: E138K G140S Q148H): > 114 fold-change | Susceptibility (Fold-change vs. WT) ([9]; isolate entry 36: G140S,Q148H): > 143 fold-change | Susceptibility (Fold-change vs. WT) ([9]; isolate entry 37: G140S,Q148R): > 143 fold-change | Susceptibility (Fold-change vs. WT) ([9]; isolate entry 38: G140S,Q148H): > 143 fold-change | Susceptibility (Fold-change vs. WT) ([9]; isolate entry 39: G140S,Q148H): > 143 fold-change | Susceptibility (Fold-change vs. WT) ([9]; isolate entry 40: T97A,G140S,Q148H): > 143 fold-change | Susceptibility (Fold-change vs. WT) ([9]; isolate entry 41: E138K,G140C,Q148R): > 143 fold-change | Susceptibility (Fold-change vs. WT) ([9]; isolate entry 42: L74L/M,G140A,Q148R): > 143 fold-change | Susceptibility (Fold-change vs. WT) ([9]; isolate entry 43: G140S,Q148R): > 143 fold-change | Susceptibility (Fold-change vs. WT) ([9]; isolate entry 44: G140S,Q148H,E138A): > 143 fold-change | Susceptibility (Fold-change vs. WT) ([9]; isolate entry 45: T97A,G140S,Q148H): > 143 fold-change | Susceptibility (Fold-change vs. WT) ([9]; isolate entry 46: L74M,G140C,Q148R): > 143 fold-change | Susceptibility (Fold-change vs. WT) ([9]; isolate entry 47: E138K,G140A,Q148K): > 143 fold-change
